Results as given in PMC10816934, “Targeting the Melanocortin 1 Receptor in Melanoma: Biological Activity of α-MSH–Peptide Conjugates” (International Journal of Molecular Sciences, 2024).

How the values were obtained:
[1] = system: subcutaneous B16 murine melanoma in C57BL/6 male mice; assay: In vivo antitumor effect, subcutaneous B16 melanoma allograft; settings: for Increase of animal bodyweight at the end of the experiment in comparison to the start: conjugates 10 mg Dau content/kg i.p. days 9, 13, 15, 17, free Dau 1 mg/kg days 9, 17; for Animal body weight (Table S1): change at end compared to start; for Animal body weight (Table S1) / Tumor weigh in % (Table S1): minus = decrease; for Animal body weight (Table S1) / Tumor weigh in % (Table S1) / Tumor volume in % (Table S1) / Tumor volume in mm3 (Table S1) / Tumor growth inhibition based on tumor weight, in comparison to the control group: conjugates 10 mg Dau content/kg; for Tumor weigh in % (Table S1) / Tumor volume in % (Table S1) / Tumor volume in mm3 (Table S1): change compared to control group; for Tumor volume in % (Table S1) / Tumor volume in mm3 (Table S1): minus = inhibition; for Tumor growth inhibition based on tumor weight, in comparison to the control group / Tumor volume in percentage (start set as 100%) increased in comparison to the control group: free Dau 1 mg/kg i.p.; for Tumor volume in percentage (start set as 100%) increased in comparison to the control group: end of experiment, Conj1 10 mg Dau content/kg
Description: In the first experiment, B16 murine melanoma cells were subcutaneously (s.c.) injected into side of the latero-abdominal region of 35 C57BL/6 male mice (20–28 g), which murine strain is syngeneic for the B16 melanoma tumor cell line [59, 60], 6.5 ×·10^5 cells in a volume of 200 µL M199 medium was inoculated per animal. Mice were randomized in a stratified procedure considering two main factors. The primary factor was to obtain groups with the most equal tumor sizes, the secondary factor was to have groups in which the weight of mice are the most equal. The treatment started 9 days after cell inoculation when average tumor volume was 30 mm^3. Compounds were dissolved in saline solution (Teva, Debrecen, Hungary), and administered via i.p. injection in a volume of 0.1 mL per 10 g of bodyweight. […] Animal weight and tumor volumes were measured initially when the treatment started and at periodic intervals following treatment. A digital caliper was used to measure the longest (a) and the shortest diameter (b) of a given tumor. The tumor volume was calculated using the formula V = ab^2 × π/6, whereby a and b represent the measured parameters (length and width). Termination of the experiment was 20 days after cell inoculation, i.e., 12 days after treatment started, since the average volume of the tumors in the control group reached over 1800 mm^3. The mice from all groups were sacrificed by cervical dislocation after which their tumors were harvested and weighed for antitumor effect assessment. Antitumor effect of treatments was evaluated measuring the tumor volume and calculating the percentage of how much the tumor volume grew in comparison to the starting tumor volume which was set arbitrarily for all tumors as 100% at the start of treatment.

[2] = system: B16 murine melanoma cell line; assay: In vitro antiproliferative activity, MTT assay; type: cell-based, mouse; settings: for IC50: MTT assay, 0.8–100 μM in serum-free medium 24 h, then 48 h culture, mean ± SD of two or three independent experiments; for Relative Potency: ratio of IC50 values of free Dau and conjugate
Description: (§1) The following cell cultures were used for the biological evaluation of the synthetic melanoma-specific peptide–drug (Dau–α-MSH) conjugates: A2058 (human skin melanoma, CVCL_1059), M24 (human metastatic skin melanoma, CVCL_D032), OCM-1 (human ocular choroidal melanoma-1, CVCL_6934), OCM-3 (human ocular choroidal melanoma-3, CVCL_6937), WM983A (human metastatic skin melanoma, CVCL_6808), WM983B (human metastatic skin melanoma CVCL_6809), SK-MEL-202 (human skin melanoma, ATCC HTB-68) and B16 (mouse melanoma, ATCC: CRL-6475). Cells were maintained in RPMI-1640 (Lonza, Basel, Switzerland), supplied with 10% FBS (fetal bovine serum; BioSera, Nuaille, France), L-glutamine, and 1% penicillin–streptomycin (from 10 000 units penicillin and 10 mg streptomycin/mL, Gibco, Dublin, Ireland) at 37 °C in a 5% CO2 atmosphere. No mycoplasma contamination was detected in the cell cultures.
(§2) The in vitro cytostatic effect of Dau–α-MSH conjugates was determined by two different assays. The full-length Dau–α-MSH conjugates were investigated by MTT assay using human and murine melanoma cell cultures. For determination of the cytostatic effect of these conjugates, the cells were treated with the compounds at 0.8–100 μM concentration range dissolved in the corresponding serum-free media for 24 h. After incubation, the treating solutions were removed, the cells were washed two times with serum-free medium and cultured for 48 h in the appropriate serum-containing cell culture medium. On the fourth day, the MTT assay was carried out to determine the IC50 values of the compounds. IC50 is the concentration that inhibits cell proliferation by 50%. Nonlinear regression analysis was performed with Prism 6 software (GraphPad, La Jolla, CA, USA) to generate sigmoidal dose–response curves, from which the 50% inhibitory concentration (IC50) values of the compounds were calculated and presented as micromolar (µM) units. The experiments were done in triplicate, and each experiment was repeated twice.

[3] = system: M24 human melanoma cell line; assay: In vitro antiproliferative activity, MTT assay; type: cell-based; settings: for IC50: MTT assay, 0.8–100 μM in serum-free medium 24 h, then 48 h culture, mean ± SD of two or three independent experiments; for Relative Potency: ratio of IC50 values of free Dau and conjugate
Description: as §1, §2

[4] = system: WM983B human melanoma cell line; assay: In vitro antiproliferative activity, MTT assay; type: cell-based; settings: for IC50: MTT assay, 0.8–100 μM in serum-free medium 24 h, then 48 h culture, mean ± SD of two or three independent experiments; for Relative Potency: ratio of IC50 values of free Dau and conjugate
Description: as §1, §2

[5] = system: A2058 human melanoma cell line; assay: In vitro antiproliferative activity, MTT assay; type: cell-based; settings: for IC50: MTT assay, 0.8–100 μM in serum-free medium 24 h, then 48 h culture, mean ± SD of two or three independent experiments; for Relative Potency: ratio of IC50 values of free Dau and conjugate
Description: as §1, §2

[6] = system: OCM-1 human uveal melanoma tumor in male NOD-SCID mice; assay: In vivo tumor growth inhibition, OCM-1 xenograft; set-up: species or system mouse
Description: In the next experiment, the murine xenograft melanoma model establishment studies were performed using 8–12-week-old male NOD-SCID mice. For selection of the most suitable tumor model, three cell lines were then inoculated subcutaneously, OCM-1, SK-MEL-202, and WM983A. Cells were injected in a 0.1 mL RPMI-1640 basic medium in a concentration of 1.5·× 10^6 cells/mL, and the tumor growth and weight of mice were monitored 2–3 times per week. Subsequently, the antitumor effects of the Dau–α-MSH conjugates were determined in a mouse xenograft melanoma model selected as described above. Once the tumor volume reached 60 mm^3, mice were randomized and assigned to different groups for each treatment: 0.9% saline as a control, free daunomycin, Conj2 and Conj4. Treatments were injected intraperitoneally every fifth day, three times in total (daunomycin dosage of 5 mg/kg in case of Conj2, 10 mg/kg for Conj4, respectively, which was determined based on the toxicity tests, and 1 mg/kg were used for free drug–MTD). The weight and tumor size of mice were monitored during the whole experiment. On Day 33, mice were euthanized, and the primary tumor, heart, lung, liver, and spleen were harvested and stored in 4% formalin (Molar Chemicals, Halásztelek, Hungary). Liver weight was measured for the calculation of the toxicity of conjugates and daunomycin.

OCM-3 cells = assay: In vitro cytostatic effect, PrestoBlue assay; type: cell-based, human; settings: Homo sapiens; OCM-3; PrestoBlue; 0.003–200 μM in serum-free medium 72 h; mean ± SEM of three independent experiments
Description: as §1
(§3) The in vitro cytostatic effect of the Dau–α-MSH conjugate with optimized sequence (Conj4) was investigated and compared with Conj2 by PrestoBlue assay using human melanoma cell cultures with different origins. For determination of the cytostatic effect of the conjugates, the cells were treated with the compounds at 0.003–200 μM concentration range dissolved in the corresponding serum-free medium for 72 h. After the treatment, the PrestoBlue assay (purchased from Invitrogen (Waltham, MA, USA) was carried out to determine the IC50 values of the compounds. Based on the IC50 values, we also determined the targeting index (TI) of the conjugates using the following equation [58]: TI=IC50neg/IC50posconjugate/IC50neg/IC50posfree drug

OCM-1 cells = assay: In vitro cytostatic effect, PrestoBlue assay; type: cell-based, human; settings: Homo sapiens; OCM-1; PrestoBlue; 0.003–200 μM in serum-free medium 72 h; mean ± SEM of three independent experiments
Description: as §1, §3

WM983A cells = assay: In vitro cytostatic effect, PrestoBlue assay; type: cell-based, human; settings: Homo sapiens; WM983A; PrestoBlue; 0.003–200 μM in serum-free medium 72 h; mean ± SEM of three independent experiments
Description: as §1, §3

WM983B cells = assay: In vitro cytostatic effect, PrestoBlue assay; type: cell-based, human; settings: Homo sapiens; WM983B; PrestoBlue; 0.003–200 μM in serum-free medium 72 h; mean ± SEM of three independent experiments
Description: as §1, §3

[7] = free drug 1 mg/kg i.p., group terminated on day 28

Row | SMILES | Increase of animal bodyweight at the end of the experiment in comparison to the start ([1]; B16-bearing C57BL/6 mice) [%] | Animal body weight (Table S1) ([1]; free Dau 1 mg/kg) | Tumor weigh in % (Table S1) ([1]; free Dau 1 mg/kg) | Tumor volume in % (Table S1) ([1]; free Dau 1 mg/kg) | Tumor volume in mm3 (Table S1) ([1]; free Dau 1 mg/kg) | IC50 [2] [nM] | Relative Potency [2] | IC50 [3] [nM] | Relative Potency [3] | IC50 [4] [nM] | Relative Potency [4] | IC50 [5] [nM] | Relative Potency [5] | Tumor growth inhibition based on tumor weight, in comparison to the control group ([1]; after termination (day 20)) [%] | Tumor volume in percentage (start set as 100%) increased in comparison to the control group [1] [%] | further results
1 | CCCC[C@H](NC(=O)[C@H](CO)NC(=O)[C@H](Cc1ccc(O)cc1)NC(=O)[C@H](CO)NC(=O)CON=C(C)[C@]1(O)Cc2c(O)c3c(c(O)c2[C@@H](O[C@H]2C[C@H](N)[C@H](O)[C@H](C)O2)C1)C(=O)c1c(OC)cccc1C3=O)C(=O)N[C@@H](CCC(=O)O)C(=O)N[C@@H](Cc1c[nH]cn1)C(=O)N[C@@H](Cc1ccccc1)C(=O)N[C@@H](CCCNC(=N)N)C(=O)N[C@@H](Cc1c[nH]c2ccccc12)C(=O)NCC(=O)N[C@@H](CCCCNC(=O)CON=C(C)[C@]1(O)Cc2c(O)c3c(c(O)c2[C@@H](O[C@H]2C[C@H](N)[C@H](O)[C@H](C)O2)C1)C(=O)c1c(OC)cccc1C3=O)C(=O)N1CCC[C@H]1C(=O)N[C@H](C(N)=O)C(C)C [Conj3, Dau=Aoa-SYSNleEHFRWGK(Dau=Aoa)PV-NH2] | 18.2 | +18.2% | +9.2% | -14.7% | +12.3% | 2000 ± 700 | 0.0130 | 11000 ± 800 | 0.0108 | 3600 ± 200 | 0.0138 | 3000 ± 800 | 0.0133 | – | – | Tumor weight increased in comparison to the control ([1]; after termination (day 20), 10 mg Dau content/kg i.p.): 9.2%; Average tumor volume (mm^3) higher compared to the control group ([1]; end of experiment (day 20), 10 mg Dau content/kg i.p.): 12.3%
2 | COc1cccc2c1C(=O)c1c(O)c3c(c(O)c1C2=O)C[C@@](O)(C(C)=O)C[C@@H]3O[C@H]1C[C@H](N)[C@H](O)[C@H](C)O1 [Dau, daunomycin, reference compound] | 7.6 | +7.6% | -17.0% | +58.8% | -4.9% | – | – | – | – | – | – | – | – | 17 | 58.8 | Tumor growth inhibition based on tumor volume in mm^3, compared to control ([1]; end of experiment (day 20), conjugates 10 mg Dau content/kg i.p., free Dau 1 mg/kg): 4.9%; Animals died during the experiment ([1]; seven animals per group, B16-bearing C57BL/6 mice): 3 animals; Liver weight compared to the control ([6]; OCM-1-bearing NOD-SCID mice, Conj2 5 mg/kg, Conj4 10 mg/kg, daunomycin 1 mg/kg i.p., no significant toxicity): 89.79%; Normalized liver weight, value line 1 ([6]; Table S2, single animal, line 1): 4.05%; Normalized liver weight, value line 2 ([6]; Table S2, single animal, line 2): 4.31%; Normalized liver weight, value line 4 ([6]; Table S2, single animal, line 4): 4.81%; Normalized liver weight, value line 5 ([6]; Table S2, single animal, line 5): 4.07%; Normalized liver weight, value line 6 ([6]; Table S2, single animal, line 6): 4.07%; Normalized liver weight, value line 7 ([6]; Table S2, single animal, line 7): 5.29%; Normalized liver weight, line printed as "relative to ctr" ([6]; Table S2, value line 9): 5.00%; Toxicity (general condition of mice) [6, 7]: high toxicity; Tumor inhibition compared to the controls [6, 7]: lack of tumor inhibition; IC50 (OCM-3 cells): 560 ± 50 nM; IC50 (OCM-1 cells): 730 ± 60 nM; IC50 (WM983A cells): 190 ± 60 nM; IC50 (WM983B cells): 330 ± 50 nM; IC50 ([2]; Mus musculus): 26 ± 8 nM; IC50 ([3]; Homo sapiens): 119 ± 25 nM; IC50 ([4]; Homo sapiens): 50 ± 23 nM; IC50 ([5]; Homo sapiens): 40 ± 7 nM
3 | CCCC[C@H](NC(=O)[C@H](CO)NC(=O)[C@H](Cc1ccc(O)cc1)NC(=O)[C@H](CO)NC(=O)CON=C(C)[C@]1(O)Cc2c(O)c3c(c(O)c2[C@@H](O[C@H]2C[C@H](N)[C@H](O)[C@H](C)O2)C1)C(=O)c1c(OC)cccc1C3=O)C(=O)N[C@@H](CCC(=O)O)C(=O)N[C@@H](Cc1c[nH]cn1)C(=O)N[C@@H](Cc1ccccc1)C(=O)N[C@@H](CCCNC(=N)N)C(=O)N[C@@H](Cc1c[nH]c2ccccc12)C(=O)NCC(=O)N[C@@H](CCCCN)C(=O)N1CCC[C@H]1C(=O)N[C@H](C(N)=O)C(C)C [Conj1, Dau=Aoa-SYSNleEHFRWGKPV-NH2] | 12.9 | +12.9% | -2.4% | +9.7% | -23.8% | 2900 ± 600 | 0.0090 | 12800 ± 1600 | 0.0093 | 9900 ± 1500 | 0.0050 | 9800 ± 5400 | 0.0041 | 2.4 | 9.7 | –
